Test results: ChEMBL document CHEMBL1152029 (1997)
The source made the active and inactive calls. No cut-off for these calls is given here.

Columns and labels:
V79 [1] = assay: The in vitro radioprotective effect measured against Chinese hamster V-79 cells at concentration of 0.1 mM; format: functional, Cricetulus griseus
Mus musculus [2] = assay: Mean survival time of compound was measured using CD2F1 male mice in group of ten at 239 mg/kg dose on day 30; format: functional
V79 [3] = assay: The cytotoxicity in vitro against Chinese hamster V-79 cells at concentration of 1 mM; format: functional; conditions: Cricetulus griseus, read-out: Survival
V79 [4] = assay: The cytotoxicity in vitro against Chinese hamster V-79 cells at concentration of 0.1 mM; format: functional; conditions: Cricetulus griseus, read-out: Survival
V79 [5] = assay: The cytotoxicity in vitro against Chinese hamster V-79 cells at concentration of 0.5 mM; format: functional; conditions: Cricetulus griseus, read-out: Survival
Mus musculus [6] = assay: %Survival of compound was measured using CD2F1 male mice in group of ten at 239 mg/kg dose on day 30; format: functional; conditions: 720 h
Mus musculus [7] = assay: The percent increase in life span was measured using CD2F1 male mice at 239 mg/kg dose; format: functional
Mus musculus [8] = assay: Mean survival time of treated group(T) and Mean survival time of control group(C) was measured using CD2F1 male mice at 239 mg/kg dose; format: functional
Mus musculus [9] = assay: Mean survival time of compound was measured using CD2F1 male mice in group of ten at 469 mg/kg dose on day 30; format: functional
Mus musculus [10] = assay: The percent increase in life span was measured using CD2F1 male mice at 469 mg/kg dose; format: functional
Mus musculus [11] = assay: %Survival of compound was measured using CD2F1 male mice in group of ten at 469 mg/kg dose on day 30; format: functional; conditions: 720 h
[12] = Mean survival time of treated group(T) and Mean survival time of control group(C) was measured using CD2F1 male mice at 469 mg/kg dose; format: functional
Mus musculus [13] = assay: The percent increase in life span was measured using CD2F1 male mice at 400 mg/kg dose; format: functional
Mus musculus [14] = assay: Mean survival time of compound was measured using CD2F1 male mice in group of ten at 400 mg/kg dose on day 30; format: functional
V79 [15] = assay: The cytotoxicity in vitro against Chinese hamster V-79 cells at concentration of 0.1 mM; NA= Not active; format: functional, cell-based; conditions: Cricetulus griseus
[16] = Mean survival time of treated group(T) and Mean survival time of control group(C) was measured using CD2F1 male mice at 400 mg/kg dose; format: functional
V79 [17] = assay: The cytotoxicity in vitro against Chinese hamster V-79 cells at concentration of 0.5 mM; NA= Not active; format: functional, cell-based; conditions: Cricetulus griseus
Mus musculus [18] = assay: %Survival of compound was measured using CD2F1 male mice in group of ten at 400 mg/kg dose on day 30; format: functional; conditions: 720 h

SMILES	DMF (V79 [1])	MST (Mus musculus [2])	viability at 1000 µM (V79 [3]) [%]	viability at 100 µM (V79 [4]) [%]	viability at 500 µM (V79 [5]) [%]	survival at 239 mg/kg (Mus musculus [6]) [%]	ILS at 239 mg/kg (Mus musculus [7]) [%]	Ratio (Mus musculus [8])	MST (Mus musculus [9])	ILS at 469 mg/kg (Mus musculus [10]) [%]	survival at 469 mg/kg (Mus musculus [11]) [%]	Ratio [12]	ILS at 400 mg/kg (Mus musculus [13]) [%]	MST (Mus musculus [14])	Survival (V79 [15])	Ratio [16]	Survival (V79 [17])	survival at 400 mg/kg (Mus musculus [18]) [%]
NCCCNCCSP(=O)(O)O [AMIFOSTINE]	1.4	27	0	100	2	80	130	2.63	–	–	–	–	–	–	–	–	–	–
CNCCCNCCCSP(=O)(O)O	1.5	–	90	93	99	–	–	–	20	18	60	1.94	–	–	–	–	–	–
CNCCCNCCCSP(=O)(Oc1ccc(Cl)cc1)SCCCNCCCNC	1.65	–	94	–	–	–	–	–	–	–	–	–	73	23	inactive	2.26	inactive	50
